Reference: patent US20070245431A1, “POLYUNSATURATED FATTY ACID PRODUCTION IN HETEROLOGOUS ORGANISMS USING PUFA POLYKETIDE SYNTHASE SYSTEMS” (priority 2006, published 2007)

How the values were obtained:
acyl-CoA synthetases = experiment: In vitro activity assay of Schizochytrium FAS-KO cell free homogenate with Triacsin C (HIP extraction, normal phase TLC); format: biochemical; settings: Triacsin C 0, 25, 100 or 200 uM, 10 minutes, then ATP and Mg+2, additional 20 minutes; effect at higher concentrations
Description: An example of a protocol for preparation of cell free homogenates (CFH) from the cell wall deficient strains of Schizochytrium is as follows. Cells were grown in A50-3 medium and then diluted into M2B medium. The media used for growing the KO strains were supplemented with the appropriate fatty acid. Cells were grown to an OD600 nm of >˜2.5 and <˜5 in the M2B media. Cells in 50 mL of culture medium were collected by centrifugation (table top centrifuge—˜1200 rpm×4 minutes) in 50 mL plastic tubes. The supernatant was decanted and the cells resuspended 5 mL Buffer A (100 mM Phosphate pH 7.2, 10% (w/v) glycerol, 1 mM EDTA and 2 mM DTT) and centrifuged as before. The supernatant was discarded and the cells resuspended in ice cold 5 mL Buffer A. The suspension was sonicated (Ultrasonic Processor Model GE130 with microtip, Pulser at 2 seconds, ˜1 Watt power setting) with tube on ice for 1.5 minutes. The sample was checked by microscopy to ensure that all of the cells were broken. The CFH was aliquoted in 200 uL portions into 0.5 mL PCR tubes with caps and frozen by dropping into liquid N2. Samples were stored at −74° C. until needed.
An example of a protocol for in vitro activity assays of both FAS and PUFA synthase activities is as follows. […]

yeast = experiment: Fatty acid profile (GC of FAMEs) of yeast strains grown without or with cerulenin (FAS inhibition); format: cell-based, Saccharomyces cerevisiae
From the text: The present inventors tested the effects of cerulenin on fatty acid profiles of the strains of yeast described in Example 8 as a model of the concept of reduction of FAS activity. The yeast described in Example 9, which also contained an acyl CoA-synthetase, were additionally tested in this system, to determine whether the effects of the two strategies would additively or synergistically increase PUFA production.
Initial experiments indicated the maximum effect (i.e., as an increase in PUFAs as a percentage of the total fatty acid profile) was obtained at a concentration of 4 uM cerulenin. The cerulenin was added 4 hours after transfer to the galactose induction medium. Cells were harvested 19 hr after transfer to induction medium, freeze dried, FAMES prepared and analyzed by GC.
The yeast strains tested were: • Strain 5.5 contained the PUFA synthase genes (sOrfA, sOrfB, OrfC and Het I), as described in Example 8 above; and • Strain 5.6 contained the PUFA synthase gene set of Strain 5.5, plus the ScACoAS-1 (SEQ ID NO:82), as described in Example 9 above.
Referring to Table 2, “0 Cer” indicates cerulenin was not added, and “4 uM Cer” indicates the media was made to 4 uM cerulenin 4 hours after transfer to the induction medium). Each strain was evaluated for fatty acid production in the presence and absence of the cerulenin, to evaluate the effect of the inhibition of the FAS pathway on PUFA production. […] The values are given as a percentage of the total fatty acids detected. DHA and DPAn-6, which are the products of the Schizochytrium PUFA PKS system, were the only PUFAs present in the profiles. FIGS. 9 and 10 illustrate the amount of DHA (FIG. 9) or DHA and DPAn-6 (FIG. 10; white bars are DHA; black bars are DHA+DPAn-6) produced by the yeast, as a percentage of total FAME.

Schizochytrium = experiment: Knock out of the DAGAT gene in Schizochytrium, lipid profile; format: cell-based; settings: inactivation of the DAGAT gene in Schizochytrium

For `CCC/C=C/C/C=C/C=C/C=N/NN=O` [Triacsin C], the “loss of radiolabel from the FFA band” value (acyl-CoA synthetases) was “blocked the loss of radiolabel from the FFA band”.

For `C/C=C/C/C=C/CCC(=O)[C@H]1O[C@H]1C(N)=O` [cerulenin], the “DHA level, of total fatty acids” value (yeast; cells expressing both the PUFA synthase and ScACoAS-1 genes grown in 4 uM cerulenin (4.1% without)) was 8.2%, the DHA level (yeast; cells with just the PUFA synthase system grown in 4 uM cerulenin (1.2% without)) was 3.7% and the “concentration giving the maximum effect (increase in PUFAs as a percentage of the total fatty acid profile)” value (yeast; initial experiments) was 4 µM.

B1: DAGAT: Schizochytrium diacylglycerol acyltransferase, SEQ ID NO:100/101 (protein, listed as Schizochytrium sp.)
chain: MERPQAQASPARSEARRRRGDRSKGFADEDGETSVNTPNGMQTPYSTSMGSVSSYSSSGDYAMSEAEGSEVDPADDRMGDSIGSKPSSSSVTGRRRLTQEERDYFLRLEKEWREEDAWADQPGSWYSMLAWMPVLIGLRVFNVLLSIAFWPVSFVARVFFGKKIHTVSFWDVPLSRRKQTAVVLLFVMLLPMVVVVYSWTLVLLLFPLTTFPTLCYMVWIIYVDKSPETGSRRPFLRYWKMWRHFANYFPLRLIRTTPLDSRRKYVFCYHPHGIISLGAFGNFATDSTGFSRKFPGIDLRVLTLALNFYCPLLREFLLYLGLCSAAKKSCNQILQRGPGSAIMLVVGGAAESLDSQPGTYRLTLGRKGFVRVALDNGADLVPVLAFGENDVFDTVYLPPNSWARNVQEFVRKKLGFATPIFSGRGIFQYNMGLMPHRRPIIVVVGKPIKMPKIPDELKGRALSTTAEGVALVDKYHEKYVKALRELWNLYKERWAVHRQGSLLIQK
With B1 the “reduction in TAG” value (Schizochytrium) was roughly 90% and the “reduction in mg FAME/gm biomass” value (Schizochytrium) was roughly 80%.
